Source: US20100317647A1 (priority 2009, published 2010)

Biological target: human Cat S (Homo sapiens, UniProt P25774)
Assay: Cathepsin enzyme inhibition assay (fluorogenic peptide substrate cleavage)
Assay type: biochemical
Details: human Cat S 1 nM; substrate Z-Val-Val-Arg-AMC 20 μM; pH 6.5; fluorescence over 20 minutes
Method: Cathepsin Enzyme Inhibition Assay
Enzyme activity is measured by observing the increase in fluorescence intensity caused by cleavage of a peptide substrate containing a fluorophore whose emission is quenched in the intact peptide.
Assay buffer: 100 mM potassium phosphate pH 6.5, EDTA-Na 5 mM, Triton X-100 0.001%, DTT 5 mM. Enzymes (all at 1 nM): human and mouse Cathepsin S, Cat K, Cat B, Cat L. Substrate (20 μM): Z-Val-Val-Arg-AMC, except for Cat K which uses Z-Leu-Arg-AMC (both from Bachem).
AMC=7-Amino-4-Methyl-Coumarin.
DTT=dithiothreitol. Final volume: 100 μL.
Excitation 360 nm, Emission 465 nm.
Enzyme is added to the substance dilutions in 96-well microtitre plates and the reaction is started with substrate. Fluorescence emission is measured over 20 minutes, during which time a linear increase is observed in the absence of inhibitor. IC50 are calculated by standard methods. Inhibition of human Cat S, mouse Cat S, human Cat K, mouse Cat K, human Cat B, mouse Cat B, human Cat L and mouse Cat L have been measured separately. The results obtained for human Cat S are expressed in the following table.

Sequence of human Cat S (P25774 115-331): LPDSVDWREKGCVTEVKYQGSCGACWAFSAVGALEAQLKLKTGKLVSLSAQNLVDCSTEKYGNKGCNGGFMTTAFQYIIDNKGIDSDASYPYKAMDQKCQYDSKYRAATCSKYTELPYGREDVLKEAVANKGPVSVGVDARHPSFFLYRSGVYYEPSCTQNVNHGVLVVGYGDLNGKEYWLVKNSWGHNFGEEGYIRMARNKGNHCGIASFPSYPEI

| IC50 [nM] | SMILES |
| --- | --- |
| 20.2 | N#CCNC(=O)[C@@H]1CC(S(=O)(=O)c2ccccc2Cl)C[C@H]1COc1ccc(O)nn1 (mixture of isomers) [Example 107, (1R,2R,4R)-4-(2-Chloro-benzenesulfonyl)-2-(6-hydroxy-pyridazin-3-yloxymethyl)-cyclopentanecarboxylic acid cyanomethylamide and (1R,2R,4S)-4-(2-Chloro-benzenesulfonyl)-2-(6-hydroxy-pyridazin-3-yloxymethyl)-cyclopentanecarboxylic acid cyanomethylamide] |
| 21.2 | N#CC1(NC(=O)[C@@H]2CC(S(=O)(=O)c3ccccc3Cl)C[C@H]2COc2ccc(O)nn2)CC1 (mixture of isomers) [Example 108, (1R,2R,4S)-4-(2-Chloro-benzenesulfonyl)-2-(6-hydroxy-pyridazin-3-yloxymethyl)-cyclopentanecarboxylic acid(1-cyano-cyclopropyl)-amide and (1R,2R,4R)-4-(2-Chloro-benzenesulfonyl)-2-(6-hydroxy-pyridazin-3-yloxymethyl)-cyclopentanecarboxylic acid(1-cyano-cyclopropyl)-amide] |
| 32 | Cc1ccc(S(=O)(=O)C2C[C@@H](C(=O)NC3(C#N)CC3)[C@H](C(=O)N3CCC(F)(F)C3)C2)nn1 (mixture of isomers) [Example 224, (1R,2R,4S)-2-(3,3-Difluoro-pyrrolidine-1-carbonyl)-4-(6-methyl-pyridazine-3-sulfonyl)-cyclopentanecarboxylic acid (1-cyano-cyclopropyl)-amide and (1R,2R,4R)-2-(3,3-Difluoro-pyrrolidine-1-carbonyl)-4-(6-methyl-pyridazine-3-sulfonyl)-cyclopentanecarboxylic acid (1-cyano-cyclopropyl)-amide] |
| 1 | CO[C@@H]1C[C@H](S(=O)(=O)c2ccc(-c3ccc(F)cn3)cc2C(F)(F)F)C[C@H]1C(=O)NC1(C#N)CC1 (racemic) [Example 30, (1R,2R,4R) and (1S,2S,4S)-4-[4-(5-Fluoro-pyridin-2-yl)-2-trifluoromethyl-benzenesulfonyl]-2-methoxy-cyclopentanecarboxylic acid (1-cyano-cyclopropyl)-amide] |
| 0.1 | CO[C@@H]1C[C@H](S(=O)(=O)c2ccc(-c3ccccn3)cc2C(F)(F)F)C[C@H]1C(=O)NC1(C#N)CC1 (racemic) [Example 41, (1R,2R,4R) and (1S,2S,4S)-2-Methoxy-4-(4-pyridin-2-yl-2-trifluoromethyl-benzenesulfonyl)-cyclopentanecarboxylic acid (1-cyano-cyclopropyl)-amide] |
| 345 | N#CCNC(=O)[C@@H]1CC[C@H](S(=O)(=O)c2ccccc2Cl)C1 (racemic) [Example 43, 3-(2-Chloro-benzenesulfonyl)-cyclopentanecarboxylic acid cyanomethyl-amide] |
| 5.8 | CO[C@@H]1C[C@H](S(=O)(=O)c2ccccc2C(F)(F)F)C[C@H]1C(=O)NC1(C#N)CC1 (racemic) [Example 46, (1R,2R,4R) and (1S,2S,4S)-2-Methoxy-4-(2-trifluoromethyl-benzenesulfonyl)-cyclopentanecarboxylic acid (1-cyano-cyclopropyl)-amide] |
| 7.8 | CO[C@@H]1C[C@H](S(=O)(=O)c2ccccc2C(F)(F)F)C[C@H]1C(=O)NCC#N (racemic) [Example 47, (1R,2R,4R) and (1S,2S,4S)-2-Methoxy-4-(2-trifluoromethyl-benzenesulfonyl)-cyclopentanecarboxylic acid cyanomethyl-amide] |
| 120 | N#CC1(NC(=O)[C@@H]2C[C@@H](S(=O)(=O)c3ccccc3Cl)C[C@H]2O)CC1 (racemic) [Example 48, (1R,2R,4R) and (1S,2S,4S)-4-(2-Chloro-benzenesulfonyl)-2-hydroxy-cyclopentanecarboxylic acid (1-cyano-cyclopropyl)-amide] |
| 82.3 | N#CCNC(=O)[C@@H]1C[C@@H](S(=O)(=O)c2ccccc2Cl)C[C@H]1O (racemic) [Example 49, (1R,2R,4R) and (1S,2S,4S)-4-(2-Chloro-benzenesulfonyl)-2-hydroxy-cyclopentanecarboxylic acid cyanomethyl-amide] |
| 25 | CO[C@@H]1C[C@H](S(=O)(=O)c2ccc(Cl)cc2Cl)C[C@H]1C(=O)NC1(C#N)CC1 (racemic) [Example 50, (1R,2R,4R) and (1S,2S,4S)-4-(2,4-Dichloro-benzenesulfonyl)-2-methoxy-cyclopentanecarboxylic acid (1-cyano-cyclopropyl)-amide] |
| 20 | CO[C@@H]1C[C@H](S(=O)(=O)c2ccc(Cl)cc2Cl)C[C@H]1C(=O)NCC#N (racemic) [Example 51, (1R,2R,4R) and (1S,2S,4S)-4-(2,4-Dichloro-benzenesulfonyl)-2-methoxy-cyclopentanecarboxylic acid cyanomethyl-amide] |
| 11700 | N#CC1(NC(=O)[C@H]2C[C@@H](S(=O)(=O)c3ccccc3Cl)C[C@@H]2O)CC1 (racemic) [Example 52, (1S,2S,4R) and (1R,2R,4S)-4-(2-Chloro-benzenesulfonyl)-2-hydroxy-cyclopentanecarboxylic acid (1-cyano-cyclopropyl)-amide] |
| 6690 | N#CCNC(=O)[C@H]1C[C@@H](S(=O)(=O)c2ccccc2Cl)C[C@@H]1O (racemic) [Example 53, (1S,2S,4R) and (1R,2R,4S)-4-(2-Chloro-benzenesulfonyl)-2-hydroxy-cyclopentanecarboxylic acid cyanomethyl-amide] |
| 2.1 | CCCO[C@@H]1C[C@H](S(=O)(=O)c2ccccc2C(F)(F)F)C[C@H]1C(=O)NC1(C#N)CC1 (racemic) [Example 54, (1R,2R,4R) and (1S,2S,4S)-2-Propoxy-4-(2-trifluoromethyl-benzenesulfonyl)-cyclopentanecarboxylic acid (1-cyano-cyclopropyl)-amide] |
| 2.1 | CCCO[C@@H]1C[C@H](S(=O)(=O)c2ccccc2C(F)(F)F)C[C@H]1C(=O)NCC#N (racemic) [Example 55, (1R,2R,4R) and (1S,2S,4S)-2-Propoxy-4-(2-trifluoromethyl-benzenesulfonyl)-cyclopentanecarboxylic acid cyanomethyl-amide] |
| 24.8 | CO[C@@H]1C[C@H](S(=O)(=O)c2ccc(F)cc2Cl)C[C@H]1C(=O)NC1(C#N)CC1 (racemic) [Example 56, (1R,2R,4R) and (1S,2S,4S)-4-(2-Chloro-4-fluoro-benzenesulfonyl)-2-methoxy-cyclopentanecarboxylic acid (1-cyano-cyclopropyl)-amide] |
| 21.8 | CO[C@@H]1C[C@H](S(=O)(=O)c2ccc(Oc3ccc(F)cc3)cc2Cl)C[C@H]1C(=O)NC1(C#N)CC1 (racemic) [Example 57, (1R,2R,4R) and (1S,2S,4S)-4-[2-Chloro-4-(4-fluoro-phenoxy)-benzenesulfonyl]-2-methoxy-cyclopentanecarboxylic acid (1-cyano-cyclopropyl)-amide] |
| 6.2 | CO[C@@H]1C[C@H](S(=O)(=O)c2ccc(Br)cc2C(F)(F)F)C[C@H]1C(=O)NC1(C#N)CC1 (racemic) [Example 58, (1R,2R,4R) and (1S,2S,4S)-4-(4-Bromo-2-trifluoromethyl-benzenesulfonyl)-2-methoxy-cyclopentanecarboxylic acid (1-cyano-cyclopropyl)-amide] |
